Data: ChEMBL document CHEMBL5365473, “Novel Sulfonylurea-Based NLRP3 Inflammasome Inhibitor for Efficient Treatment of Nonalcoholic Steatohepatitis, Endotoxic Shock, and Colitis” (J Med Chem, 2023)

Target: NACHT, LRR and PYD domains-containing protein 3 (Mus musculus, UniProt Q8R4B8)
Experiment: Inhibition of NLRP3 inflammasome in mouse […] cells assessed as inhibition of LPS/ATP-induced IL-1 beta secretion primed with LPS for 4.5 hs followed by incubation with compound for 30 mins and later stimulation with ATP for 30 mins by ELISA
Type: cell-based, J774.A1

NACHT, LRR and PYD domains-containing protein 3, sequence (Q8R4B8 whole entry, the tested form may be a part): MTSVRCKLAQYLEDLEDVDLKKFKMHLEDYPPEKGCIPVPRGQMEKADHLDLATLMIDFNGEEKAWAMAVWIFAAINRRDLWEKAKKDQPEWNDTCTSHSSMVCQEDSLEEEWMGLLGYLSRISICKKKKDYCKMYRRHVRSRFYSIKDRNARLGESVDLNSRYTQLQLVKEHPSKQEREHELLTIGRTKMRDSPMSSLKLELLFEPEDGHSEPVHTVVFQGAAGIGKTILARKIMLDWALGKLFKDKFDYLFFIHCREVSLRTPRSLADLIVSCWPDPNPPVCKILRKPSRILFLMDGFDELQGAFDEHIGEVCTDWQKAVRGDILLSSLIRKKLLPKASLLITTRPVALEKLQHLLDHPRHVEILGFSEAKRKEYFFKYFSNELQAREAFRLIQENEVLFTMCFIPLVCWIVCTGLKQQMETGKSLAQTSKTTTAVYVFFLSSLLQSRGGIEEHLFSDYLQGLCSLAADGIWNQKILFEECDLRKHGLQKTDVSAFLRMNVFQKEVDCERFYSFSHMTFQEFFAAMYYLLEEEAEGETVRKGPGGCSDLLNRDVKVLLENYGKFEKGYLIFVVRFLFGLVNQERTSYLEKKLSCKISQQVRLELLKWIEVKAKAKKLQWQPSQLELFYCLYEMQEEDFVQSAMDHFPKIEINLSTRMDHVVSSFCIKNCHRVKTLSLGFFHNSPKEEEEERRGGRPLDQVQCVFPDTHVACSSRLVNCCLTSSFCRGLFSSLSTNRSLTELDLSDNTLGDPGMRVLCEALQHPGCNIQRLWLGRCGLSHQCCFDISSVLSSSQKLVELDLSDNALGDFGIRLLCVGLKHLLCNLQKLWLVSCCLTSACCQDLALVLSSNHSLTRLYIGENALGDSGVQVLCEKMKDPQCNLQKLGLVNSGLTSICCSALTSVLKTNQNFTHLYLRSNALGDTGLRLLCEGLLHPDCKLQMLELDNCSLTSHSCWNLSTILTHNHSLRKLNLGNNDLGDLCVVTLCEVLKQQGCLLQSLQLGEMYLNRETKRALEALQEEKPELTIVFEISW

SMILES | IC50 [µM]
CC(C)(C)OC(=O)N1CC=C(c2c3c(c(NC(=O)NS(=O)(=O)c4cc(C(C)(C)O)co4)c4c2CCC4)CCC3)CC1 | > 5
CN(C)C(=O)c1cccc(S(=O)(=O)NC(=O)Nc2c3c(cc4c2CCC4)CCC3)c1 | 0.691
CC(C)(C)OC(=O)Nc1ccc(-c2c3c(c(NC(=O)NS(=O)(=O)c4cc(C(C)(C)O)co4)c4c2CCC4)CCC3)cc1 | > 5
CC(C)(O)c1cccc(S(=O)(=O)NC(=O)Nc2c3c(cc4c2CCC4)CCC3)c1 | > 20
CCCCCN(C)Cc1ccc(S(=O)(=O)NC(=O)Nc2c3c(cc4c2CCC4)CCC3)cc1 | 1.73
CN(C)c1ccc(S(=O)(=O)NC(=O)Nc2c3c(cc4c2CCC4)CCC3)cc1 | > 10
CC(=O)c1cccc(S(=O)(=O)NC(=O)Nc2c3c(cc4c2CCC4)CCC3)c1 | > 20
CN(C)Cc1cc(F)cc(S(=O)(=O)NC(=O)Nc2c3c(cc4c2CCC4)CCC3)c1 | 0.722
CC(C)(O)c1cc(Br)cc(S(=O)(=O)NC(=O)Nc2c3c(cc4c2CCC4)CCC3)c1 | > 20
CCc1cccc(CC)c1NC(=O)NS(=O)(=O)c1ccc(CN(C)C)cc1 | > 10
CC(C)(O)c1coc(S(=O)(=O)NC(=O)Nc2c3c(c(-c4cccc(C#N)c4)c4c2CCC4)CCC3)c1 | > 5
O=C(Nc1c2c(cc3c1CCC3)CCC2)NS(=O)(=O)c1ccc(CN2CCCCC2)cc1 | 1.25
CC(C)(C)OC(=O)N1C=C(c2c3c(c(NC(=O)NS(=O)(=O)c4cc(C(C)(C)O)co4)c4c2CCC4)CCC3)CCC1 | > 5
Cc1cccc(C)c1NC(=O)NS(=O)(=O)c1ccc(CN(C)C)cc1 | > 10
CC(C)c1cccc(C(C)C)c1CC(=O)NS(=O)(=O)c1ccc(CN(C)C)cc1 | 1.86
